2 compounds from ChEMBL document CHEMBL3632570, “Structure-Guided Design of Novel l-Cysteine Derivatives as Potent KSP Inhibitors” (ACS Med Chem Lett, 2015) can be followed below.

Molecules are shown by their SMILES. Activity calls are given as the source filed them. The rule behind the calls is not given here.

Data set [1] deals with Centromere-associated protein E (Homo sapiens) (UniProt Q02224). The data set is described as follows: Inhibition of microtubule-stimulated CENP-E motor domain (1 to 339) (unknown origin) ATPase activity at 6.3 uM.
The target in data set [2] is T1, Kinesin-like protein KIF11 (Homo sapiens, UniProt P52732).
T1 sequence (P52732 whole entry): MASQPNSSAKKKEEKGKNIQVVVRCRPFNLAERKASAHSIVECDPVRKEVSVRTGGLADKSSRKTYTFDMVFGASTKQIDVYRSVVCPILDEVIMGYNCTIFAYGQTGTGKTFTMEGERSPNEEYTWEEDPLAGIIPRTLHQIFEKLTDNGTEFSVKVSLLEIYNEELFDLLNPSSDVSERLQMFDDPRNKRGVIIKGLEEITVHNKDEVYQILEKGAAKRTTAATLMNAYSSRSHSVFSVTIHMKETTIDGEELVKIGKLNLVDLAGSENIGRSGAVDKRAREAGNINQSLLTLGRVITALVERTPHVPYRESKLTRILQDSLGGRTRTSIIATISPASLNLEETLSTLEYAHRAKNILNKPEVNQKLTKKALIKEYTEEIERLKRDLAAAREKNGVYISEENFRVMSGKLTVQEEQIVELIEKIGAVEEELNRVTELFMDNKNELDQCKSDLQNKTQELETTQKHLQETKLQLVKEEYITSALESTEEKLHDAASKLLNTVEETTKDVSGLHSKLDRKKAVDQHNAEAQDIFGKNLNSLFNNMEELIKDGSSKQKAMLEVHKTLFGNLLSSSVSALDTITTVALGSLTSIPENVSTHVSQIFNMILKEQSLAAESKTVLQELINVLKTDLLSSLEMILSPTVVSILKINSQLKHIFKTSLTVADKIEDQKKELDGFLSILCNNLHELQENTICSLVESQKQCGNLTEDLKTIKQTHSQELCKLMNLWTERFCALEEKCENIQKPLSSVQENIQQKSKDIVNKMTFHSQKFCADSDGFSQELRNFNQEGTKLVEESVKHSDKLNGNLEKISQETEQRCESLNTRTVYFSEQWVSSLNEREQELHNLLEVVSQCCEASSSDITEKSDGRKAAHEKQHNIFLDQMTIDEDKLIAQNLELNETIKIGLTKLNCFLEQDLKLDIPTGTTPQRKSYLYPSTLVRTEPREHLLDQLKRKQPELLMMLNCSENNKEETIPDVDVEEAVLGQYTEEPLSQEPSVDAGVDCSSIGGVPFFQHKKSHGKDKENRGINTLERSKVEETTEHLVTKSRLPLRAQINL
The data set is described as follows: Inhibition of His-tagged KSP motor domain (1 to 369) (unknown origin) assessed as inhibition of microtubule-stimulated KSP ATPase activity preincuabted for 30 mins followed by ATP addition measured after 15 mins by Kinase-Glo assay.

The target of data set [3] is T2, Kinesin-like protein KIF11 (Homo sapiens) (UniProt P52732).
T2 sequence (whole entry): T1 sequence (P52732 whole entry)
Description: Binding affinity to KSP motor domain (unknown origin) assessed as change in melting temperature at 100 uM by differential scanning fluorimetry in presence of 1 mM ATP

Data set [4] concerns the target T3, Chromosome-associated kinesin KIF4A (Homo sapiens) (UniProt O95239).
T3 sequence (whole entry): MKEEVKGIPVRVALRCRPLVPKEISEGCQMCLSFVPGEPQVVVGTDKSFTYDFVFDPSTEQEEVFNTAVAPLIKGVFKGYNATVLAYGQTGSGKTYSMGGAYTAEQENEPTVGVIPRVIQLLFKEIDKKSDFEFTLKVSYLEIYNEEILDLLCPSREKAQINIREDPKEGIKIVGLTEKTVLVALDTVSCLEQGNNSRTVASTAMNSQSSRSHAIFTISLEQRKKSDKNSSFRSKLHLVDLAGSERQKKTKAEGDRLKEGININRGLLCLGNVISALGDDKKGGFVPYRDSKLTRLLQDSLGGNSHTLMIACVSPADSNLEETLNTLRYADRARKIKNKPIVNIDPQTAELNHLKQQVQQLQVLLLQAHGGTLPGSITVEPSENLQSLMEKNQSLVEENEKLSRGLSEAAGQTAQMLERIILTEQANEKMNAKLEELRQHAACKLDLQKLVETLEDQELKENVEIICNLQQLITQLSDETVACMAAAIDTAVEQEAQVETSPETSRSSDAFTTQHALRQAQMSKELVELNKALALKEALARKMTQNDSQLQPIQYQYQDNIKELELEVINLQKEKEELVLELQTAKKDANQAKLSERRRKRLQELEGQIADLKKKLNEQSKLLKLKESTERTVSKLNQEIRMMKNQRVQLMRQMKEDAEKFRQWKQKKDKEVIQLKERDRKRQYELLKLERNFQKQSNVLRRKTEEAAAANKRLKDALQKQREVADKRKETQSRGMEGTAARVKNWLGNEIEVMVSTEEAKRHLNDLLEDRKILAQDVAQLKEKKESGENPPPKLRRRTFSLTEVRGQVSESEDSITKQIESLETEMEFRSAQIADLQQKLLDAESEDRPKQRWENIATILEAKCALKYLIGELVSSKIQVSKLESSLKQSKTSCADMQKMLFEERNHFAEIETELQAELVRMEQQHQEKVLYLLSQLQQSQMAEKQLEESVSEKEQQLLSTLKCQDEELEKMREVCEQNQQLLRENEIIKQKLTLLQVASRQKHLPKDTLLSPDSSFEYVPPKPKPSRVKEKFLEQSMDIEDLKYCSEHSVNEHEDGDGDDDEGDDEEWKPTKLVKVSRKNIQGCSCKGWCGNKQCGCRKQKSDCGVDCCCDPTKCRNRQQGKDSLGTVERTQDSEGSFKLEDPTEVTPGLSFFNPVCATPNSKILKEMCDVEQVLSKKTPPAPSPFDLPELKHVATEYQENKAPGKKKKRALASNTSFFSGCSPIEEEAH
The data set can be described thus: Inhibition of microtubule-stimulated KIF4A motor domain (1 to 346) (unknown origin) ATPase activity at 6.3 uM.

In data set [5] the test system is HeLa. The data set is described as follows: Cell cycle arrest at mitotic phase in human HeLa cells assessed as formation of monopolar spindles at 40 nM after 6 hrs by DAPI staining-based microscopic analysis. It counts as functional.
Another data set relates to Mus musculus. The data set can be described thus: Toxicity in athymic nude BALB/cAJcL mouse xenografted with HCT116 cells assessed as mortality at 75 mg/kg, iv administered on days 1,3,5,8,10 and 12. The format is organism-based, HCT-116. To be noted: in vivo.
In data set [6] the test system is HCT-116. The data set can be described thus: Antitumor activity against human HCT116 cells xenografted in athymic nude BALB/cAJcL mouse assessed as inhibition of tumor growth at 75 mg/kg, iv administered on days 1,3,5,8,10 and 12 measured on day 15. It counts as functional.
Data set [7] deals with HeLa. The data set can be described thus: Cell cycle arrest at mitotic phase in human HeLa cells assessed as mitotic index after 6 hrs. The format is functional.
For data set [8], the system named is HCT-116. The data set can be described thus: Antitumor activity against human HCT116 cells xenografted in iv dosed athymic nude BALB/cAJcL mouse assessed as inhibition of tumor growth drug administered on days 1,3,5,8,10 and 12 measured on day 15. It counts as functional, organism-based.

Sequence of Centromere-associated protein E (Homo sapiens) (Q02224 whole entry, the tested form may be a part): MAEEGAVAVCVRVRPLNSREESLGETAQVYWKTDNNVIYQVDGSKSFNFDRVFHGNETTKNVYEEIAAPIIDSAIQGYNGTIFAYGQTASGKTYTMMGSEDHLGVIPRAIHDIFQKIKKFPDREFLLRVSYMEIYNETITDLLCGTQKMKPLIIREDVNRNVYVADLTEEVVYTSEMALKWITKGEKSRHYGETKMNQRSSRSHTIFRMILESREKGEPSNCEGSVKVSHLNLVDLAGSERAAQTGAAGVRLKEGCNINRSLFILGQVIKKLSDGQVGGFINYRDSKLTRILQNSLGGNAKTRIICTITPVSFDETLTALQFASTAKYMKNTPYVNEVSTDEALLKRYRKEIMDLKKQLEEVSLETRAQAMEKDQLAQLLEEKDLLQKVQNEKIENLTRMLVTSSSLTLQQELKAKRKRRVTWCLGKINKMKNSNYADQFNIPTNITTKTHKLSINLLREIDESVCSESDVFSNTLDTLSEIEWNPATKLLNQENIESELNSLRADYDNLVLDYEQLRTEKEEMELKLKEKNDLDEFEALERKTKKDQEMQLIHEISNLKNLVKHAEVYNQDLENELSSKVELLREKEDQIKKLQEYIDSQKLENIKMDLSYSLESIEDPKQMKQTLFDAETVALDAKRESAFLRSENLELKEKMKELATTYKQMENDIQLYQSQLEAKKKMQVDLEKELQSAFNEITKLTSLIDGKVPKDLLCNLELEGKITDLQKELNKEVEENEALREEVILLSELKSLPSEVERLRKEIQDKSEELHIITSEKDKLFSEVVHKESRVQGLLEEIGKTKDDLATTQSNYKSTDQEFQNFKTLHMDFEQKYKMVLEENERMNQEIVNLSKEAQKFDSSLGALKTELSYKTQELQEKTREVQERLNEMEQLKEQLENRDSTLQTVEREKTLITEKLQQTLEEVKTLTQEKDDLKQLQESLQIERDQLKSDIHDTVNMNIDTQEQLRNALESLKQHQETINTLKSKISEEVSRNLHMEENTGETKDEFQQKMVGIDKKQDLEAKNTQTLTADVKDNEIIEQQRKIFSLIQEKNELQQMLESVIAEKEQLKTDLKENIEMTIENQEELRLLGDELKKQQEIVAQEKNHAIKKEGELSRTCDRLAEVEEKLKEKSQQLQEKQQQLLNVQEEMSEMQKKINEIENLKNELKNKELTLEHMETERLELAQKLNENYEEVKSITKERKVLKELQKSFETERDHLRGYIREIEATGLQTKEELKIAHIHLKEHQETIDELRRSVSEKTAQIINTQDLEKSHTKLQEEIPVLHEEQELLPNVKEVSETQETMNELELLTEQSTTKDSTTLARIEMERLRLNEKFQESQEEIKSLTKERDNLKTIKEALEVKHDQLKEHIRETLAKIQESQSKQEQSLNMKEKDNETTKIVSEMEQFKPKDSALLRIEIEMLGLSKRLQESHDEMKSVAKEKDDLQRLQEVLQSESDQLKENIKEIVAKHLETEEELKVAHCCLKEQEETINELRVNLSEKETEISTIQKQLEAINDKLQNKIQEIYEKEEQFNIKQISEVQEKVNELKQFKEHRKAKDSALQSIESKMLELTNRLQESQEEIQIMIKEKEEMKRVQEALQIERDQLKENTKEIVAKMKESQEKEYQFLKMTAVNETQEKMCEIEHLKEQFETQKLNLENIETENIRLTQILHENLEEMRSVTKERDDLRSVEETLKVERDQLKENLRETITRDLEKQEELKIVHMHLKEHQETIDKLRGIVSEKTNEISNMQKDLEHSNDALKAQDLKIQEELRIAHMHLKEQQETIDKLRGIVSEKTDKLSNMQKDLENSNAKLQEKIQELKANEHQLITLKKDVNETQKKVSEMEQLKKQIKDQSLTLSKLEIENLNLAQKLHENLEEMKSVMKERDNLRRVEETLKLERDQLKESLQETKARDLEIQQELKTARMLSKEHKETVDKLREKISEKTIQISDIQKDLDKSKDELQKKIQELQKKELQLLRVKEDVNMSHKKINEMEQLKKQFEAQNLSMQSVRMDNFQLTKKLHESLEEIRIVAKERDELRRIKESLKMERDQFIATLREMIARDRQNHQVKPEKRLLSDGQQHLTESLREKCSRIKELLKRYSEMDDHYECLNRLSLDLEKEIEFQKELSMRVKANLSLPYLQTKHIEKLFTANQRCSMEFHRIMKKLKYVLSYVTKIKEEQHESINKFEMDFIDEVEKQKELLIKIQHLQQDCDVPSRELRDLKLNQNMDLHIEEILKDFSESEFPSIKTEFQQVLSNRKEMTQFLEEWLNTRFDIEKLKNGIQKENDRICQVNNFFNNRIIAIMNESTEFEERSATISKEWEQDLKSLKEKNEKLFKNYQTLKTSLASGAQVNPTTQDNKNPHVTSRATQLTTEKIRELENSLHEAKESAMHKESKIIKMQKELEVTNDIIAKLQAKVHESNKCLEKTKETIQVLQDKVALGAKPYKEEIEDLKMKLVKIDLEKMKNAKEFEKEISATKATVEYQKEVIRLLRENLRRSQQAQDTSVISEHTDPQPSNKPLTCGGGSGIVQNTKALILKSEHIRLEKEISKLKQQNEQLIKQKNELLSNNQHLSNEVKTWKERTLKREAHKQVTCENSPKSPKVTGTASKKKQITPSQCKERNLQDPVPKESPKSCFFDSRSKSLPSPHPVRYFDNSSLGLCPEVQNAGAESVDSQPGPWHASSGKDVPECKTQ

Regarding `COc1ccc(C2(SC[C@H](N)C(=O)O)c3ccccc3CCc3ccccc32)cc1`, the inhibition entry in data set [1] and in data set [4] was “inactive” throughout. Also, in [2], the IC50 is 14 nM. Also, the ΔTm in data set [3] worked out at 12 °C.

Regarding `N[C@@H](CSC1(c2ccc(C(F)(F)F)cc2)c2ccccc2CCc2ccccc21)C(=O)O`, the inhibition entry in data set [1] and in data set [4] was “inactive” in each case. Besides, the result in the data set on HeLa [5] was Active. The IC50 in data set [2] turned out to be 21 nM. Further, the Activity entry with Mus musculus is reported as “Non-toxic”. Besides, the T/C with HCT-116 [6] was found to be 9%. The MI50 in the data set with HeLa [7] is 14 nM. Besides, the TGI entry in the data set with HCT-116 [8] was “Dose-dependent effect”.

The IC50 is the midpoint of a concentration-inhibition curve. One may read the ΔTm as the change in melting temperature against a reference sample. For orientation: T/C means the result in the treated group divided by that in the control group, in per cent.
